Measurements reported in PubChem BioAssay (NCI).
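Cells were grown in 96-well plates and exposed to each compound for 48 hours at five concentrations; endpoints were interpolated linearly between bracketing concentrations, or set to the highest concentration if not reached. Here, GI50 denotes the concentration required for 50% inhibition of growth. TGI is the concentration that stops growth completely.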

Key:
Assay in all cases: NCI anticancer screen, dose series, 48 h
U251 CNS = test system: U251 CNS
TK-10 renal = test system: TK-10 renal
ACHN renal = test system: ACHN renal
SK-MEL-5 melanoma = test system: SK-MEL-5 melanoma
OVCAR-3 ovarian = test system: OVCAR-3 ovarian
CAKI-1 renal = test system: CAKI-1 renal
MALME-3M melanoma = test system: MALME-3M melanoma
IGROV1 ovarian = test system: IGROV1 ovarian
MCF7 breast = test system: MCF7 breast
A549 NSCLC = test system: A549 NSCLC
SN12C renal = test system: SN12C renal
NCI/ADR-RES ovarian = test system: NCI/ADR-RES ovarian
CCRF-CEM leukemia = test system: CCRF-CEM leukemia
PC-3 prostate = test system: PC-3 prostate
MDA-MB-231 breast = test system: MDA-MB-231 breast
OVCAR-8 ovarian = test system: OVCAR-8 ovarian
OVCAR-4 ovarian = test system: OVCAR-4 ovarian
LOX IMVI melanoma = test system: LOX IMVI melanoma
SW-620 colon = test system: SW-620 colon
NCI-H460 lung = test system: NCI-H460 lung
NCI-H522 lung = test system: NCI-H522 lung
KM12 colon = test system: KM12 colon
NCI-H23 lung = test system: NCI-H23 lung
SF-268 CNS = test system: SF-268 CNS
HL-60(TB) leukemia = test system: HL-60(TB) leukemia
HCT-116 colon = test system: HCT-116 colon
786-0 renal = test system: 786-0 renal
COLO 205 colon = test system: COLO 205 colon
SNB-19 CNS = test system: SNB-19 CNS
HCT-15 colon = test system: HCT-15 colon
UACC-62 melanoma = test system: UACC-62 melanoma
HS 578T breast = test system: HS 578T breast
SNB-75 CNS = test system: SNB-75 CNS
SK-OV-3 ovarian = test system: SK-OV-3 ovarian
RXF 393 renal = test system: RXF 393 renal
MOLT-4 leukemia = test system: MOLT-4 leukemia
HT29 colon = test system: HT29 colon
MDA-MB-435 = test system: MDA-MB-435
DU-145 prostate = test system: DU-145 prostate
HOP-92 NSCLC = test system: HOP-92 NSCLC
SK-MEL-28 melanoma = test system: SK-MEL-28 melanoma
EKVX NSCLC = test system: EKVX NSCLC
T-47D breast = test system: T-47D breast
SR leukemia = test system: SR leukemia
K-562 leukemia = test system: K-562 leukemia
SF-295 CNS = test system: SF-295 CNS
RPMI-8226 leukemia = test system: RPMI-8226 leukemia
M14 melanoma = test system: M14 melanoma
UACC-257 melanoma = test system: UACC-257 melanoma
SK-MEL-2 melanoma = test system: SK-MEL-2 melanoma
OVCAR-5 ovarian = test system: OVCAR-5 ovarian
SF-539 CNS = test system: SF-539 CNS
BT-549 breast = test system: BT-549 breast
HOP-62 NSCLC = test system: HOP-62 NSCLC
HCC-2998 colon = test system: HCC-2998 colon
A498 renal = test system: A498 renal
NCI-H226 lung = test system: NCI-H226 lung
UO-31 renal = test system: UO-31 renal

NS(=O)(=O)OCC1OC(n2cnc3cncnc32)C(O)C1O (stereo not given)
GI50 (U251 CNS): 22 nM | TGI (U251 CNS): 74.9 nM | GI50 (TK-10 renal): 21.4 nM | TGI (TK-10 renal): 71.3 nM | GI50 (ACHN renal): 28.8 nM | TGI (ACHN renal): 94.5 nM | GI50 (SK-MEL-5 melanoma): 40.2 nM | TGI (SK-MEL-5 melanoma): 144 nM | GI50 (OVCAR-3 ovarian): 35 nM | TGI (OVCAR-3 ovarian): 297 nM | GI50 (CAKI-1 renal): 18.1 nM | TGI (CAKI-1 renal): 46.3 nM | GI50 (MALME-3M melanoma): 46.9 nM | TGI (MALME-3M melanoma): 272 nM | GI50 (IGROV1 ovarian): 54.1 nM | TGI (IGROV1 ovarian): 304 nM | GI50 (MCF7 breast): 18.5 nM | TGI (MCF7 breast): 80.6 nM | GI50 (A549 NSCLC): 24.6 nM | TGI (A549 NSCLC): 115 nM | GI50 (SN12C renal): < 10 nM | TGI (SN12C renal): 36.9 nM | GI50 (NCI/ADR-RES ovarian): 10.3 nM | TGI (NCI/ADR-RES ovarian): 50.3 nM | GI50 (CCRF-CEM leukemia): 38.9 nM | TGI (CCRF-CEM leukemia): > 21.1 µM | GI50 (PC-3 prostate): 31.2 nM | TGI (PC-3 prostate): 237 nM | GI50 (MDA-MB-231 breast): 10.1 nM | TGI (MDA-MB-231 breast): 37.6 nM | GI50 (OVCAR-8 ovarian): < 10 nM | TGI (OVCAR-8 ovarian): 46.6 nM | GI50 (OVCAR-4 ovarian): 10.3 nM | TGI (OVCAR-4 ovarian): 74.5 nM | GI50 (LOX IMVI melanoma): 22.8 nM | TGI (LOX IMVI melanoma): 54.8 nM | GI50 (SW-620 colon): 16.7 nM | TGI (SW-620 colon): 155 nM | GI50 (NCI-H460 lung): 24 nM | TGI (NCI-H460 lung): 76.2 nM | GI50 (NCI-H522 lung): < 10 nM | TGI (NCI-H522 lung): 23.2 nM | GI50 (KM12 colon): 17.9 nM | TGI (KM12 colon): 52.2 nM | GI50 (NCI-H23 lung): 17.5 nM | TGI (NCI-H23 lung): 52.5 nM | GI50 (SF-268 CNS): 26.7 nM | TGI (SF-268 CNS): 279 nM | GI50 (HL-60(TB) leukemia): 55.6 nM | GI50 (HCT-116 colon): 15.7 nM | TGI (HCT-116 colon): 33 nM | GI50 (786-0 renal): 22.8 nM | TGI (786-0 renal): 69.3 nM | GI50 (COLO 205 colon): 29.1 nM | TGI (COLO 205 colon): 84.7 nM | GI50 (SNB-19 CNS): 12.6 nM | TGI (SNB-19 CNS): 68.5 nM | GI50 (HCT-15 colon): 28.3 nM | TGI (HCT-15 colon): 105 nM | GI50 (UACC-62 melanoma): 37.1 nM | TGI (UACC-62 melanoma): 133 nM | GI50 (HS 578T breast): 59.2 nM | TGI (HS 578T breast): 932 nM | GI50 (SNB-75 CNS): 30.9 nM | TGI (SNB-75 CNS): 400 nM | GI50 (SK-OV-3 ovarian): 34.3 nM | TGI (SK-OV-3 ovarian): 137 nM | GI50 (RXF 393 renal): 23.5 nM | TGI (RXF 393 renal): 65 nM | GI50 (MOLT-4 leukemia): 20.9 nM | TGI (MOLT-4 leukemia): 2420 nM | GI50 (HT29 colon): 27.5 nM | TGI (HT29 colon): 105 nM | GI50 (MDA-MB-435): 28.4 nM | TGI (MDA-MB-435): 84.5 nM | GI50 (DU-145 prostate): 17.8 nM | TGI (DU-145 prostate): 132 nM | GI50 (HOP-92 NSCLC): 18.3 nM | TGI (HOP-92 NSCLC): 61.9 nM | GI50 (SK-MEL-28 melanoma): 39 nM | TGI (SK-MEL-28 melanoma): 185 nM | GI50 (EKVX NSCLC): 64 nM | TGI (EKVX NSCLC): 647 nM | GI50 (T-47D breast): < 13.4 nM | TGI (T-47D breast): 66.5 nM | GI50 (SR leukemia): 15.3 nM | TGI (SR leukemia): 21.6 µM | GI50 (K-562 leukemia): 33.3 nM | TGI (K-562 leukemia): 1220 nM | GI50 (SF-295 CNS): 27.9 nM | TGI (SF-295 CNS): 120 nM | GI50 (RPMI-8226 leukemia): 33.3 nM | TGI (RPMI-8226 leukemia): 147 nM | GI50 (M14 melanoma): 30 nM | TGI (M14 melanoma): 94.4 nM | GI50 (UACC-257 melanoma): 43.1 nM | TGI (UACC-257 melanoma): 244 nM | GI50 (SK-MEL-2 melanoma): 35.1 nM | TGI (SK-MEL-2 melanoma): 133 nM | GI50 (OVCAR-5 ovarian): < 11.4 nM | TGI (OVCAR-5 ovarian): 74.7 nM | GI50 (SF-539 CNS): 20.6 nM | TGI (SF-539 CNS): 46.7 nM | GI50 (BT-549 breast): 27.5 nM | TGI (BT-549 breast): 91.3 nM | GI50 (HOP-62 NSCLC): < 10 nM | TGI (HOP-62 NSCLC): 14.3 nM | GI50 (HCC-2998 colon): 31.2 nM | TGI (HCC-2998 colon): 97 nM | GI50 (A498 renal): 21.6 nM | TGI (A498 renal): 82.1 nM | GI50 (NCI-H226 lung): 34.4 nM | TGI (NCI-H226 lung): 222 nM | GI50 (UO-31 renal): 25.6 nM | TGI (UO-31 renal): 106 nM
